Data set [1] can be described thus: Plasma pharmacokinetics in mice after i.v. or p.o. AM-1241*HCl. It counts as in vivo, mouse.
Data set [2] is described as follows: Tissue distribution of AM-1241 in mice after i.v. or p.o. administration. The class given is in vivo, mouse. To be noted: 25 mg/kg; for time by which concentration became undetectable: i.v.
A further data set relates to plasma proteins. The experiment in a line: Plasma-protein binding in undiluted mouse plasma. It counts as in vitro ADME. To be noted: up to 50 µM, 30 minute incubation at 37°C, triplicate.
In the next data set the target is human serum albumin (Homo sapiens, UniProt P02768). The experiment in a line: Binding to aqueous human serum albumin. To be noted: 50 µM. The class given is in vitro ADME.
Data set [3] is described as follows: Stability in mouse plasma at 37°C. It counts as in vitro ADME. Conditions: at least 6 hours, 20 µM.
The nature of data set [4]: Solution stability in acetonitrile at 37°C. It counts as physicochemical. To be noted: at least 24 hours, 20 µM.
A short description of data set [5]: Thermal stability of aqueous AM-1241*HCl solutions. To be noted: 0.003, 0.03, 0.3 and 1 mg/mL, up to 14 days. It counts as physicochemical.
Data set [6] can be described thus: Microsomal metabolism and LC-MS/MS metabolite analysis, rat liver microsomes. The class given is in vitro ADME. To be noted: 100 µM, 30 minutes, 37°C, NADPH.
A short description of data set [7]: Microsomal metabolism and LC-MS/MS metabolite analysis, human liver microsomes. Conditions: 100 µM, 30 minutes, 37°C, NADPH. It counts as in vitro ADME.
The next data set concerns mice. The data set can be described thus: Responses of mice to AM-1241 administration. It counts as in vivo, mouse.
In a further data set the test system is CB2 vs. CB1. To be noted: ref Beltramo 2009; Bingham et al. 2007; Mancini et al. 2009; Nackley et al. 2003; Quartilho et al. 2003; Yao et al. 2006; cited from earlier work.
Data set [8] addresses T1, CB2 (Homo sapiens, UniProt P34972). To be noted: ref Beltramo 2009; Bingham et al. 2007; Mancini et al. 2009; Nackley et al. 2003; Quartilho et al. 2003; Yao et al. 2006; cited from earlier work.
For data set [9] the following is noted: local (intraplantar) administration; ref Malan et al. 2001; cited from earlier work.
The conditions of data set [10]: i.p., murine model; ref Storr et al. 2009; cited from earlier work.
The conditions of data set [11]: ref Beltramo 2009, cited from earlier work.
The conditions of data set [12]: 1.0 mg/kg i.v.; ref Dhawan et al. 2006; Petitet et al. 1999; cited from earlier work.
For data set [13] the following is noted: rodents, doses of 0.1–100 mg/kg; ref Valenzano et al. 2005; cited from earlier work.
For data set [14] the following is noted: ref Giblin et al. 2007; cited from earlier work.
Data set [15] addresses T1, CB2. The data set can be described thus: Preliminary experiments: CB2 agonist potency of metabolite. To be noted: data not shown.

The values below come from article PMC3493696 (Life sciences, 2012).

The structures appear in SMILES notation. Like-named read-outs stand apart in the source and are kept apart here.

T1 sequence (P34972 whole entry, species assumed): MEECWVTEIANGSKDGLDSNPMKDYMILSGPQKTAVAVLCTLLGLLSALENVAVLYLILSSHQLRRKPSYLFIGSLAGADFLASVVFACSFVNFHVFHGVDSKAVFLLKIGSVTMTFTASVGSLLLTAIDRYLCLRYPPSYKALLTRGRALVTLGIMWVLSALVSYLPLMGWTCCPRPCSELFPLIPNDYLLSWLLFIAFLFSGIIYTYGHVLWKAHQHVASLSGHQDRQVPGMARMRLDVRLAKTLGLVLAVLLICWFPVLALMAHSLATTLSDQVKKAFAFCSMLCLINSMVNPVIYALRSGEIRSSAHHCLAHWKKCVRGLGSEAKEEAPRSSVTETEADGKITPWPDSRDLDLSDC
Chain of human serum albumin (P02768 25-609): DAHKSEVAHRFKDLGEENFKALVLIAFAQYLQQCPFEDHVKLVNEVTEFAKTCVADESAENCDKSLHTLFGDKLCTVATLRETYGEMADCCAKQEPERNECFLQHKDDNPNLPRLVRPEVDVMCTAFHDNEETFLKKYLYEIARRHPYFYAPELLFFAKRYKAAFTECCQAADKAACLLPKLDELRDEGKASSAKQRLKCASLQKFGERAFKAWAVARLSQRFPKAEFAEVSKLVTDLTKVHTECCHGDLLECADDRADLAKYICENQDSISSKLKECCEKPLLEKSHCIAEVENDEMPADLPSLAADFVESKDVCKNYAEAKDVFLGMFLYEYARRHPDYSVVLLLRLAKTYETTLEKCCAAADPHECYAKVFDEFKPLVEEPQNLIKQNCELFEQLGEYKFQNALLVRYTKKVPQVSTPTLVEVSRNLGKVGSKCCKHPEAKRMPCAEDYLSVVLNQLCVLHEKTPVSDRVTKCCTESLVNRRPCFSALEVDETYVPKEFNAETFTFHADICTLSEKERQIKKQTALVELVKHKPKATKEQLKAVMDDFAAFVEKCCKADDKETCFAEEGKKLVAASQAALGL

Turning to `CN1CCCCC1Cn1cc(C(=O)c2cc([N+](=O)[O-])ccc2I)c2ccccc21` (racemic) [AM-1241, (R,S)-(2-iodo-5-nitrophenyl)-[1-((1-methyl-piperidin-2-yl)methyl-1H-indol-3-yl]-methanone], the “half-life after p.o. relative to i.v. administration” value in data set [1] (25 mg/kg) is given as “over 2 fold”. In data set [1] (25 mg/kg i.v.), this molecule yielded a plasma half-life of 0.617 h. The “half-life after p.o. administration” value in data set [1] (25 mg/kg p.o.) came out at 1.37 h. Moreover, the oral bioavailability in data set [1] (25 mg/kg, plasma AUC ratio p.o./i.v.) is ~ 21%. The “time by which concentration became undetectable” value in [2] (brain) was ≤ 120 min; in data set [2] (intestine), ≤ 240 min; in data set [2] (kidney), ≤ 240 min; in data set [2] (liver), ≤ 90 min; in data set [2] (plasma), ≤ 240 min; in data set [2] (spleen) it was ≤ 240 min. The “detection in brain or liver” value in data set [2] (p.o.) is on record as “not in brain or liver”. Moreover, in the data set on plasma proteins, the “bound to plasma protein” value turned out to be 99%. Further, the bound to albumin at human serum albumin (0.4% (w/v) aqueous human serum albumin) is 56%; at human serum albumin (1.0% (w/v) aqueous human serum albumin), 85%. The “recovery after incubation (stability)” value in data set [3] and in [4] was > 95% in each case. Besides, the “stability of aqueous samples” value in [5] (4°C) and in [5] (room temperature) was “stable” each time. In addition, the “site of phase I microsomal metabolism (demethylation and hydroxylation products)” value in [6] was “primarily on the piperadine moiety”. The “metabolites formed compared with rat liver microsomes” value in [7] is reported as “the same metabolites”. For the same molecule, the toxicity entry in the data set on mice (25 mg/kg orally or i.v., necropsies unremarkable) is “not toxic”. Also, the “transient gaping response (animals affected)” value in the data set with mice (25 mg/kg p.o.) is recorded as “Two out of 29 mice”. Also, in the data set on mice (any AM-1241 treatment (25 mg/kg i.v. or p.o.)), the “gross organ or tissue abnormalities at end-point necropsy” value was “No gross organ or tissue abnormalities”. In the data set with CB2 vs. CB1, the “selectivity for CB2 vs. CB1” value was “up to 340 fold”. The CB2 affinity result at CB2 [8] was “low nanomolar”. In addition, in data set [9], the “dose at which maximal analgesic efficacy was reached” value is given as 3.3 mg/kg. Moreover, the “daily dose required to reduce experimental colitis” value in [10] was 20 to 40 mg/kg. For the same molecule, the “doses reported efficacious in various preclinical pain models” value in [11] (i.v., Beltramo et al. 2006, Ohta et al. 2008) is reported as “up to 6 mg/kg”.

Turning to `CN1CCCCC1Cn1cc(C(=O)c2cc([N+](=O)[O-])ccc2I)c2ccccc21.Cl` (stereo not shown) [AM-1241*HCl], the behavior after administration result in the data set on mice (25 mg/kg i.v.) is listed as “initially somewhat hypoactive, but behaved normally by 90 minutes post-dose”. For the same molecule, in the data set with mice (25 mg/kg p.o.), the behavior after administration entry was “remained alert and apparently unaffected”; the “transient gaping response (animals affected)” value is “two of the twenty-nine animals”.

For `CN1CCCCC1Cn1cc(C(=O)c2ccccc2I)c2ccccc21` (stereo not shown) [AM-2233], in [12], the catalepsy result is “profound catalepsy”.

For `COc1ccc2c(c1)c(CCN1CCOCC1)c(C)n2C(=O)c1cccc(Cl)c1Cl` [GW405833, reference compound], in data set [13], the oral bioavailability is 0%. In data set [11] (i.p.), the “dose of maximal effective antihyperalgesic and analgesic activities” value is 1 to 3 mg/kg.

Consider `O=C(NCC1CCOCC1)c1cnc(Nc2ccc(Cl)cc2Cl)nc1C(F)(F)F` [GW842166X], for which the “half-life after p.o. administration” value in [14] was 3 to 5 h.

On to `Cc1c(C(=O)c2cccc3ccccc23)c2cccc3c2n1[C@H](CN1CCOCC1)CO3` [WIN 55,212-2], for which the catalepsy result in [12] is recorded as “profound catalepsy”.

Consider `O=C(c1cc([N+](=O)[O-])ccc1I)c1cn(CC2CCCCN2)c2ccccc12` (stereo not shown) [demethylated metabolite of AM-1241], for which the “CB2 agonist potency compared to the parent compound” value on CB2 [15] is reported as “somewhat less potent”.
